Source: US9533002B2, “Methods of treating a metabolic syndrome by modulating heat shock protein (HSP) 90-β” (Berg LLC, priority 2012, dated 2017)
Entries after “also recorded” stand apart in the source; their conditions may differ.

How the values were obtained:
HSMM myotubes [1] = test: Seahorse bioenergetic profiling of myotubes (OCR; oligomycin, CCCP, rotenone); type: cell-based, human
Experimental: HSMM myotubes cultured in wells in a Seahorse® assay cartridge were differentiated with 2% horse serum myocyte differentiation media for 7 days. Cells were transfected with either negative control scrambled siRNA or siHsp siRNA with TKO transfection reagents at concentration of 50 nM following vendor instructions as described above (Mirus Bio®). After 48 hours transfection, cells were subjected to Seahorse® bioenergetics analysis using drugs to modulate cell energetics, i.e., oligomycin, carbonyl cyanide-M-chlorophenyl hydrazine (CCCP), and rotenone. Oligomycin inhibits mitochondrial ATP synthase (complex V of ET chain) and allows analysis of glycolytic capacity. CCCP is an uncoupler that […] the mitochondrial membrane, thereby inducing maximum compensatory oxygen consumption, and allows analysis of uncoupled OCR. Rotenone inhibits NADH dehydrogenase (complex I of ET chain) and allows analysis of non-mitochondrial OCR.
To perform the assay, each well of the Seahorse® assay cartridge was washed with 1 ml running media. 500 ul of running media was added to each well and the plate was placed in an 37° C. (CO2 free) incubator. Drugs to modulate mitochondrial activity were prepared at a 10× (10 uM) concentration, so that after addition to the cartridge, the final concentration would be 1× (1 μM). Oligomycin (50 ul), CCCP (55 ul) and rotenone (55 ul) were added to ports A, B, and C of the cartridge and the cartridge was placed back in the incubator. The Seahorse® assay wizard was opened and the cycle parameters and times were setup. The Seahorse® assay was then performed using the instrument. After the Seahorse® assay, cells were lysed with 50 ul 450 mM NaOH and then neutralized with 5 ul Tris 6.8. DNA lysates were subjected to spectrophotometric analysis at OD260 using BioTek® Take3 DNA plate reader. The data were normalized with DNA contents of the cells.
HSMM myotubes were transfected with siRNA of either control or siHsp90β for 48 hours as described above, then subjected to Seahorse® bioenergetic profiling (XF24 Analyzer) using different mitochondrial drugs including oligomycin, CCCP, and rotenone; and monitored changes on oxygen consumption rate (OCR) that reflects either basal or maximum mitochondrial oxidative capacity. The results were normalized by DNA content.

HSMM myotubes [2] = test: Insulin signaling in HSMM myotubes: western blot of total and phosphorylated Akt, Erk, GSK3β; type: cell-based, human; settings: myotubes treated with inhibitor, then insulin stimulation
Experimental: Human skeletal muscle myoblasts (HSMM) were procured from PromoCell and were cultured in growth media recommended by the vendor. Confluent cultures were replaced with differentiation media (DMEM, 2% horse serum, pyruvate and HEPES) and cells allowed to differentiate for 7 to 10 days.
Human HSMM myotubes cells that were plated in 12 well plates the previous week were used. The media was aspirated and fresh media with appropriate dilutions of the NC and H3 siRNA for Hsp90 knockdown were added such that the final concentration in the wells of the plate was 100 nM. Mirus TKO transfection reagent was used for transfecting the cells. The plate was then incubated at 37° C. overnight.
The media was aspirated and the cells were washed off twice—first with warm PBS and second with 0.1% BSA containing growth media. The cells were then serum starved for 2-3 hours in 0.1% differentiation media containing the appropriate inhibitors at 37° C. followed by insulin stimulation for 5 minutes (0, 10, and 100 nM insulin).
The wells were then washed once with PBS and harvested into 100 μl of RIPA buffer containing protease and phosphatase inhibitors. The plate was placed on ice and, using a cell scraper, the cells were scraped from the plate. […]
Protein content was estimated by BCA assay and samples were prepared for gel electrophoresis and western blotting as described in subsequent sections. The total volume required to load 10 μg of total protein was calculated. […]
Visualization of proteins and quantification of western blots was performed as follows. […]
Each strip of membrane was taken out arranged in a clean flat surface. […] The bands were quantified using the BIORAD® software.
HSMM myotubes were sequentially (1) transfected with 3 different siRNAs targeting HSP90AB1 for 48 hours, (2) serum starved for 3 hours, and (3) subjected to stimulation of different concentrations of insulin (0, 10, 100 nM). Signaling events downstream of insulin stimulation were assessed by western blotting for levels of total and phosphorylated Akt, Erk, and GSK3β. […]

[3] = myotubes treated at different concentrations

CCc1cc(-c2n[nH]c(C)c2-c2ccc3c(c2)OCCO3)c(O)cc1O [CCT018159] was tested, and the “CCCP induced uncoupling response on mitochondrial metabolism” value (HSMM myotubes [1]; 1 μM, 3 μM, and 10 μM (FIG. 10 legend)) was “did not have a significant effect”, the “CCCP induced OCR” value (HSMM myotubes [1]; 10 uM) was “greater suppression” and the “uncoupled OCR” value (HSMM myotubes [1]; lower concentration, 1 μM) was “increased”. For the same compound, the “basal OCR” value (HSMM myotubes [1]; [3]) was “no observed change”, the “uncoupled OCR (CCCP induced)” value (HSMM myotubes [1]; [3]) was “decreased in a concentration dependent manner” and the “level of pERK” value (HSMM myotubes [2]) was “no change; also recorded: No significant changes”. The “level of pGSK3β” value (HSMM myotubes [2]) was “no change; also recorded: No significant changes” and the “insulin stimulated phosphorylation of Akt (phospho-AKT)” value (HSMM myotubes [2]; higher concentration, 10 uM, vs untreated cultures) was “significantly enhanced; also recorded: increase”.
